{
  "source": "patent EP3922268B1",
  "about": "“NEW DERIVATIVES OBTAINED FROM HYALURONIC ACID AND CARNOSINE” (Fidia Farmaceutici S.p.A., priority 2020, dated 2023)",
  "system": "HFF1 cell line (consisting of fibroblasts derived from human skin)",
  "experiment": "MTT cell viability assay",
  "assay_type": "cell-based",
  "conditions": "HFF1 cells, 5 hours incubation; carnosine alone 0.136 mM",
  "protocol": "Trial design. The cell response of conjugate (1) in terms of cell viability was determined in vitro by performing the MTT assay (Mosmann T, J Immunol Methods 1983; 65:55-63) on the HFF1 cell line (consisting of fibroblasts derived from human skin). The cells were used at passages 20-23, cultured at 37°C and 5% CO2 in Dulbecco's Modified Eagle Medium (DMEM) with integrated glucose and added with FBS (1%). To conduct the MTT assay, the cells were plated in 96-well multiwell plates (7000 cells per well) in DMEM culture medium with integrated glucose and added with 1% FBS; after 48 hours they were treated with control medium, or with medium alternatively containing carnosine, conjugate (1) prepared as described in EXAMPLE 1, or complexes of conjugate (1) with Cu(II), for 5 hours of incubation at 37°C and 5% CO2. Each treatment was performed in triplicate. […] After removal of the liquid from each well and addition of DMSO (100 µl), the absorbance of the formazan salt (blue) produced by the cleavage reaction of the tetrazolium ring of MTT (yellow) by the mitochondrial enzyme succinate dehydrogenase present in the viable cells only was measured in a multiplate reader (Synergy™ 2 Multi-Mode Microplate Reader) at the wavelength of 570 nm. […]",
  "data": [
    {"smiles": "NCCC(=O)N[C@@H](Cc1c[nH]cn1)C(=O)O", "note": "[carnosine, β-alanyl-L-histidine]", "values": [
      {"measurement": "increase in cell viability", "result": "did not lead to any increase in cell viability"}
    ]}
  ]
}
